Molecules are shown by their SMILES. pIC50: −log10 of the molar value.

The target of the assay is IDO1 (Homo sapiens, UniProt P14902). The assay is described as follows: IDO1 Cellular Assay in HeLa Cells Stimulated with IFNγ. The format is cell-based. The settings on record: read-out: HeLa Cell Potency, IC50. The method, then: IDO1 Cellular Assay in HeLa Cells Stimulated with IFNγ
Chain of IDO1 (P14902 whole entry): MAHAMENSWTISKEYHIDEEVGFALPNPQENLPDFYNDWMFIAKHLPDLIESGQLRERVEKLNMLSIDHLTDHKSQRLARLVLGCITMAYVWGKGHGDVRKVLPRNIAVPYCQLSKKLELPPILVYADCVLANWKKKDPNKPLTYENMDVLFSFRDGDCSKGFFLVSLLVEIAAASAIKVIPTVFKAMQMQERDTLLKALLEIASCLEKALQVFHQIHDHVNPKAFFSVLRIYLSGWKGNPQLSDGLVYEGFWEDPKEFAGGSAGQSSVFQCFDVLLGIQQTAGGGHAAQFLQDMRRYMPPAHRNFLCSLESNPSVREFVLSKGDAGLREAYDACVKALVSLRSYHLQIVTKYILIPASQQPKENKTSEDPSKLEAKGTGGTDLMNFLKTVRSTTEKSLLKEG
HeLa cells were cultured in complete HeLa culture medium (90% EMEM, 10% heat-inactivated fetal bovine serum) and expanded to about 1×10^9 cells. The cells were then collected and frozen down at 1×10^7 cells/vial in 1 mL frozen medium (90% complete HeLa culture medium, 10% DMSO).
Compounds to be tested were serially diluted in ten 3-fold steps in DMSO starting from 10 mM DMSO stocks in Echo low volume plate(s). Compound dilutions or DMSO alone were then dispensed from the dilution plate(s) into Greiner black 384-well assay plate(s) (catalog #781086, 50 nL/well) using an Echo 550 acoustic liquid handler (Labcyte).
Frozen HeLa cells were thawed and transferred into HeLa assay medium (99% complete HeLa culture medium, 1% Pen/Strep) with 20 mL medium/vial of cells. The cells were spun down at 250 g in a table top centrifuge for 5 min and suspended in same volume of HeLa assay medium. The cells were then counted and adjusted to a density of 2×10^5 cells/mL in HeLa assay medium. Sterile L-tryptophan were added to the cells with final concentration of 300 uM L-tryptophan. A small aliquot (2 mL/plate) of HeLa cells were set aside and were not treated with IFNγ, to serve as the Max-E control.
HeLa cells with and without IFNγ were dispensed to the respective wells of 384-well assay plates containing the compounds. The plates were incubated for about 48 hours at a 37° C., 5% CO2 incubator. Afterwards, 12 μL of 0.5 M methyl isonipecotate in dimethyl sulfoxide were added into each well and the plates were sealed and incubated at 37° C. without CO2 overnight. The plates were centrifuged for 1 min at 200×g. The resulting fluorescence was measured in a Spectramax plate reader (Molecular Devices) with a 400 nm excitation filter and a 510 nm emission filter.
The fluorescence intensity of each well was corrected for the background observed in wells with non-IFNγ-treated cells and was expressed as a fraction of the intensity observed in wells of IFNγ-treated cells and DMSO only. Potencies were calculated by linear least squares fit to the four parameter logistic IC50 equation.
What is called pIC50 is the IC50 on a negative log10 scale, so that one unit is a factor of ten. On to `Cc1c(Cl)cccc1N1CCN(C(=O)Cn2nc(C(=O)N3CC[C@H](O)C(C)C3)c3c2C[C@H]2C[C@@H]32)CC1` (stereo in doubt) [Example 351, 1-(4-(3-chloro-2-methylphenyl)piperazin-1-yl)-2-((3bR,4aR)-3-((3S,4S)-4-hydroxy-3-methylpiperidine-1-carbonyl)-3b,4,4a,5-tetrahydro-1H-cyclopropa[3,4]cyclopenta[1,2-c]pyrazol-1-yl)ethanone], for which the pIC50 was 8.90.

Regarding `Cc1c(Cl)cccc1N1CCN(C(=O)Cn2nc(C(=O)N3CCC(O)C(C)C3)c3c2C[C@H]2C[C@@H]32)CC1` (stereo in doubt) [Example 353, 1-(4-(3-chloro-2-methylphenyl)piperazin-1-yl)-2-((3bR,4aR)-3-((3R,4S)-4-hydroxy-3-methylpiperidine-1-carbonyl)-3b,4,4a,5-tetrahydro-1H-cyclopropa[3,4]cyclopenta[1,2-c]pyrazol-1-yl)ethanone], the pIC50 is 8.93.

Turning to `Cc1cccc(N2CCN(C(=O)Cn3nc(C(=O)N4CCC(O)C(F)C4)c4c3C[C@H]3C[C@@H]43)C3(CC3)C2)c1C` (stereo in doubt) [Example 361, 1-(7-(2,3-dimethylphenyl)-4,7-diazaspiro[2.5]octan-4-yl)-2-((3bR,4aR)-3-((3S,4S)-3-fluoro-4-hydroxypiperidine-1-carbonyl)-3b,4,4a,5-tetrahydro-1H-cyclopropa[3,4]cyclopenta[1,2-c]pyrazol-1-yl)ethanone], the pIC50 was 8.52.

As to `Cc1cccc(N2CCN(C(=O)Cn3nc(C(=O)N4CCCC4)c4c3CC(C)(C)CC4)CC2)c1C` [Example 3, 1-[4-(2,3-dimethylphenyl)piperazin-1-yl]-2-[6,6-dimethyl-3-(pyrrolidine-1-carbonyl)-5,7-dihydro-4H-indazol-1-yl]ethanone], the pIC50 was 6.89.

Regarding `Cc1cccc(N2CCN(C(=O)Cn3nc(C(=O)N4CCCC4)c4c3CCOC4)CC2)c1C` [Example 4, 1-[4-(2,3-dimethylphenyl)piperazin-1-yl]-2-[3-(pyrrolidine-1-carbonyl)-6,7-dihydro-4H-pyrano[4,3-c]pyrazol-1-yl]ethanone], the pIC50 is 6.78.

As to `Cc1cccc(N2CCN(C(=O)Cn3nc(C(=O)N4CCCC4)c4c3CCC(F)(F)C4)CC2)c1C` [Example 6, 2-(5,5-difluoro-3-(pyrrolidine-1-carbonyl)-4,5,6,7-tetrahydro-1H-indazol-1-yl)-1-(4-(2,3-dimethylphenyl)piperazin-1-yl)ethanone], the pIC50 was 8.09.

As to `Cc1cccc(N2CCN(C(=O)Cn3nc(C(=O)N4CC[C@H](O)[C@H](F)C4)c4c3C(F)(F)CCC4)CC2)c1C` [Example 20, 2-(7,7-Difluoro-3-((3R,4S)-3-fluoro-4-hydroxypiperidine-1-carbonyl)-4,5,6,7-tetrahydro-1H-indazol-1-yl)-1-(4-(2,3-dimethylphenyl)piperazin-1-yl)ethanone], the pIC50 was 6.42.

For the molecule `Cc1cccc(N2CCN(C(=O)Cn3nc(C(=O)N4CCC(O)CC4)c4c3CC(F)(F)CC4)CC2)c1C` [Example 21, 2-(6,6-difluoro-3-(4-hydroxypiperidine-1-carbonyl)-4,5,6,7-tetrahydro-1H-indazol-1-yl)-1-(4-(2,3-dimethylphenyl)piperazin-1-yl)ethanone], the pIC50 was 8.29.

On to `Cc1cccc(N2CCN(C(=O)Cn3nc(C(=O)N4CCN(C(=O)CO)CC4)c4c3CC(F)(F)CC4)CC2)c1C` [Example 22, 2-[6,6-difluoro-3-[4-(2-hydroxyacetyl)piperazine-1-carbonyl]-5,7-dihydro-4H-indazol-1-yl]-1-[4-(2,3-dimethylphenyl)piperazin-1-yl]ethanone], for which the pIC50 was 7.56.

With `Cc1cc(C#N)ccc1N1CCN(C(=O)Cn2nc(C(=O)N3C[C@@H](C)O[C@@H](C)C3)c3c2CCC3)CC1` [Example 26, 4-[4-[2-[3-[(2S,6R)-2,6-dimethylmorpholine-4-carbonyl]-5,6-dihydro-4H-cyclopenta[c]pyrazol-1-yl]acetyl]piperazin-1-ium-1-yl]-3-methyl-benzonitrile,2,2,2-trifluoroacetate], the pIC50 is 6.32.

Regarding `COc1c(F)cc(N2CCN(C(=O)Cn3nc(C(=O)N4C[C@@H](C)O[C@@H](C)C4)c4c3CCC4)CC2)cc1F` [Example 27, 1-[4-(3,5-difluoro-4-methoxyphenyl)piperazin-1-yl]-2-{3-[(2R,6S)-2,6-dimethylmorpholine-4-carbonyl]-5,6-dihydrocyclopenta[c]pyrazol-1(4H)-yl}ethan-1-one], the negative logarithm of the IC50 (pIC50) was 6.96.

As for `C[C@@H]1CN(C(=O)c2nn(CC(=O)N3CCN(c4ccc(F)cc4)CC3)c3c2CCC3)C[C@H](C)O1` [Example 28, 2-{3-[(2R,6S)-2,6-dimethylmorpholine-4-carbonyl]-5,6-dihydrocyclopenta[c]pyrazol-1(4H)-yl}-1-[4-(4-fluorophenyl)piperazin-1-yl]ethan-1-one], the pIC50 was 6.47.

As for `COc1cccc(N2CCN(C(=O)Cn3nc(C(=O)N4C[C@@H](C)O[C@@H](C)C4)c4c3CCC4)CC2)c1` [Example 29, 2-{3-[(2R,6S)-2,6-dimethylmorpholine-4-carbonyl]-5,6-dihydrocyclopenta[c]pyrazol-1(4H)-yl}-1-[4-(3-methoxyphenyl)piperazin-1-yl]ethan-1-one], the negative logarithm of the IC50 (pIC50) is 6.50.

Take `C[C@@H]1CN(C(=O)c2nn(CC(=O)N3CCN(c4cc(F)cc(F)c4F)CC3)c3c2CCC3)C[C@H](C)O1` [Example 30, 2-{3-[(2R,6S)-2,6-dimethylmorpholine-4-carbonyl]-5,6-dihydrocyclopenta[c]pyrazol-1(4H)-yl}-1-[4-(2,3,5-trifluorophenyl)piperazin-1-yl]ethan-1-one]: the negative-log IC50 (pIC50) was 6.32.

For the molecule `C[C@@H]1CN(C(=O)c2nn(CC(=O)N3CCN(c4ccc5c(c4)CCO5)CC3)c3c2CCC3)C[C@H](C)O1` [Example 31, 1-[4-(2,3-dihydro-1-benzofuran-5-yl)piperazin-1-yl]-2-{3-[(2R,6S)-2,6-dimethylmorpholine-4-carbonyl]-5,6-dihydrocyclopenta[c]pyrazol-1(4H)-yl}ethan-1-one], the pIC50 is 6.75.

Take `C[C@@H]1CN(C(=O)c2nn(CC(=O)N3CCN(c4cccc(F)c4Cl)CC3)c3c2CCC3)C[C@H](C)O1` [Example 32, 1-[4-(2-chloro-3-fluorophenyl)piperazin-1-yl]-2-{3-[(2R,6S)-2,6-dimethylmorpholine-4-carbonyl]-5,6-dihydrocyclopenta[c]pyrazol-1(4H)-yl}ethan-1-one]: the negative-log IC50 (pIC50) is 6.93.

Consider `Cc1c(C#N)cccc1N1CCN(C(=O)Cn2nc(C(=O)N3C[C@@H](C)O[C@@H](C)C3)c3c2CCC3)CC1` [Example 33, 3-[4-({3-[(2R,6S)-2,6-dimethylmorpholine-4-carbonyl]-5,6-dihydrocyclopenta[c]pyrazol-1(4H)-yl}acetyl)piperazin-1-yl]-2-methylbenzonitrile], for which the pIC50 is 7.19.

In the case of `Cc1ccc(N2CCN(C(=O)Cn3nc(C(=O)N4C[C@@H](C)O[C@@H](C)C4)c4c3CCC4)CC2)cc1` [Example 34, 2-{3-[(2R,6S)-2,6-dimethylmorpholine-4-carbonyl]-5,6-dihydrocyclopenta[c]pyrazol-1(4H)-yl}-1-[4-(4-methylphenyl)piperazin-1-yl]ethan-1-one], the negative logarithm of the IC50 (pIC50) was 6.85.
